Reference: patent publication US20240383915A1, “OXAZEPINE COMPOUNDS AND USES THEREOF IN THE TREATMENT OF CANCER” (Genentech, Inc., priority 2021, published 2024)
pIC50: −log10 of the molar value.

Columns and labels:
KRas(G12V) = KRas(G12V) (Homo sapiens (Human), UniProt P01116, G12V); assay: KRas(G12V) GDP HTRF (BODIPY-GDP exchange TR-FRET); assay type: biochemical
KRas = KRas (Homo sapiens (Human), UniProt P01116); assay: KRas GDP HTRF (BODIPY-GDP exchange TR-FRET); assay type: biochemical
In short: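 Inhibition of SOS1-mediated exchange of BODIPY-GDP on KRAS G12D, started with 3 nM recombinant human SOS1 and 300 nM BODIPY-GDP and read after 60 min. TR-FRET excitation 337 nm, ratio 520/490 nm ×10,000. IC50 from 4-parameter Hill fit of normalized data.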

SW480 cells = assay: SW480 proliferation assay; assay type: cell-based; conditions: Homo sapiens, SW480, SW480; read-out: SW480 Prolif IC50 (G12V)
PC-9 cells = assay: PC9 proliferation assay; assay type: cell-based, human; conditions: Homo sapiens, PC-9, PC9; read-out: PC9 Prolif IC50 (G12V)

KRas(G12V), sequence (P01116-2 other isoform, or with tags, fused parts or gaps G12V): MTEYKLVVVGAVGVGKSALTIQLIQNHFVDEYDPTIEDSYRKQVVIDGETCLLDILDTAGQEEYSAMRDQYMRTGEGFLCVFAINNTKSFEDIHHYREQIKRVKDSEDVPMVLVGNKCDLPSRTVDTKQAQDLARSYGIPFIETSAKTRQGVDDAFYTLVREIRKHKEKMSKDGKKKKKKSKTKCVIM
KRas, sequence (P01116-2 other isoform, or with tags, fused parts or gaps): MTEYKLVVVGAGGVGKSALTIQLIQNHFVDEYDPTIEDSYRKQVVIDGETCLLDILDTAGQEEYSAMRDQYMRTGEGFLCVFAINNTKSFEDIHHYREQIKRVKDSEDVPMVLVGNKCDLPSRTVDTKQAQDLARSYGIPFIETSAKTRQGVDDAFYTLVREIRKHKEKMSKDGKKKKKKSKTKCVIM

Row | pIC50 (KRas(G12V)) | pIC50 (KRas) | pIC50 (SW480 cells) | pIC50 (PC-9 cells) | SMILES
1 | 10.15 | 9.36 | 5.96 | 5.31 | Cc1cc(N)nc(-c2c(Cl)c3c4c(nc(OC[C@@H]5CCC(=O)N5)nc4c2F)N([C@H](C)c2cccnc2N)CCO3)c1C(F)(F)F (atropisomer, axis not shown) [Example 121, (S)-5-((((R)-9-(6-amino-4-methyl-3-(trifluoromethyl)pyridin-2-yl)-4-((R)-1-(2-aminopyridin-3-yl)ethyl)-8-chloro-10-fluoro-5,6-dihydro-4H-[1,4]oxazepino[5,6,7-de]quinazolin-2-yl)oxy)methyl)pyrrolidin-2-one]
2 | 9.32 | 8.96 | 7.04 | 4.85 | Cc1cc(N)nc(-c2c(Cl)c3c4c(nc(OCC56COC(CF)(C5)C6)nc4c2F)N([C@H](C)c2cccnc2N)CCO3)c1C(F)(F)F [Example 154, 6-((R)-4-((R)-1-(2-aminopyridin-3-yl)ethyl)-8-chloro-10-fluoro-2-((1-(fluoromethyl)-2-oxabicyclo[2.1.1]hexan-4-yl)methoxy)-5,6-dihydro-4H-[1,4]oxazepino[5,6,7-de]quinazolin-9-yl)-4-methyl-5-(trifluoromethyl)pyridin-2-amine]
3 | – | – | 6.10 | 5.05 | COC1(CCOc2nc3c4c(c(Cl)c(-c5nc(N)cc(C)c5C(F)(F)F)c(F)c4n2)OCCN3[C@H](C)c2cccnc2N)CCC1 (atropisomer, axis not shown) [Example 150, 6-((R)-4-((R)-1-(2-aminopyridin-3-yl)ethyl)-8-chloro-10-fluoro-2-(2-(1-methoxycyclobutyl)ethoxy)-5,6-dihydro-4H-[1,4]oxazepino[5,6,7-de]quinazolin-9-yl)-4-methyl-5-(trifluoromethyl)pyridin-2-amine]
4 | – | – | 7.01 | 4.96 | COC(C)(C)COc1nc2c3c(c(Cl)c(-c4nc(N)cc(C)c4C(F)(F)F)c(F)c3n1)OCCN2[C@H](C)c1cccnc1N (atropisomer, axis not shown) [Example 110a, 6-((R)-4-((R)-1-(2-aminopyridin-3-yl)ethyl)-8-chloro-10-fluoro-2-(2-methoxy-2-methylpropoxy)-5,6-dihydro-4H-[1,4]oxazepino[5,6,7-de]quinazolin-9-yl)-4-methyl-5-(trifluoromethyl)pyridin-2-amine]
5 | – | – | 7.11 | 5.31 | Cc1cc(N)nc(-c2c(Cl)c3c4c(nc(OCCN5CCOCC5)nc4c2F)N([C@H](C)c2cccnc2N)CCO3)c1C(F)(F)F (atropisomer, axis not shown) [Example 138, 6-((R)-4-((R)-1-(2-aminopyridin-3-yl)ethyl)-8-chloro-10-fluoro-2-(2-morpholinoethoxy)-5,6-dihydro-4H-[1,4]oxazepino[5,6,7-de]quinazolin-9-yl)-4-methyl-5-(trifluoromethyl)pyridin-2-amine]
6 | – | – | 7.03 | 5.00 | Cc1cc(N)nc(-c2c(Cl)c3c4c(nc(OCC56CC(CO5)C6)nc4c2F)N([C@H](C)c2cccnc2N)CCO3)c1C(F)(F)F [Example 143, 6-((R)-2-((2-oxabicyclo[2.1.1]hexan-1-yl)methoxy)-4-((R)-1-(2-aminopyridin-3-yl)ethyl)-8-chloro-10-fluoro-5,6-dihydro-4H-[1,4]oxazepino[5,6,7-de]quinazolin-9-yl)-4-methyl-5-(trifluoromethyl)pyridin-2-amine]

More lines, now with the values behind:

Row | SMILES | pIC50 (KRas(G12V)) | pIC50 (KRas) | pIC50 (SW480 cells) | pIC50 (PC-9 cells)
7 | Cc1cc(N)nc(-c2c(Cl)c3c4c(nc(OC[C@H]5CC[C@@H]6COCCN65)nc4c2F)N([C@H](C)c2cncnc2N)CCO3)c1C(F)(F)F (atropisomer, axis not shown; (aR)) [Example 102b, 5-((R)-1-((R)-9-(6-amino-4-methyl-3-(trifluoromethyl)pyridin-2-yl)-8-chloro-10-fluoro-2-(((6R,8aR)-hexahydro-1H-pyrrolo[2,1-c][1,4]oxazin-6-yl)methoxy)-5,6-dihydro-4H-[1,4]oxazepino[5,6,7-de]quinazolin-4-yl)ethyl)pyrimidin-4-amine] | 9.77 | 9.31 | 7.00 | 5.06
8 | Cc1cc(N)nc(-c2c(Cl)c3c4c(nc(OC[C@@H]5C[C@@]6(CN5C)CC6(F)F)nc4c2F)N([C@H](C)c2cccnc2N)CCO3)c1C(F)(F)F (atropisomer, axis not shown) [Example 67, 6-((R)-4-((R)-1-(2-aminopyridin-3-yl)ethyl)-8-chloro-2-(((3S,6S)-1,1-difluoro-5-methyl-5-azaspiro[2.4]heptan-6-yl)methoxy)-10-fluoro-5,6-dihydro-4H-[1,4]oxazepino[5,6,7-de]quinazolin-9-yl)-4-methyl-5-(trifluoromethyl)pyridin-2-amine] | 9.77 | 9.26 | 8.43 | 5.55
9 | Cc1cc(N)nc(-c2cc3ncnc4c3c(c2Cl)OC[C@H](CC#N)N4Cc2cccnc2N)c1C(F)(F)F [Example 19, (S)-2-(9-(6-amino-4-methyl-3-(trifluoromethyl)pyridin-2-yl)-4-((2-aminopyridin-3-yl)methyl)-8-chloro-5,6-dihydro-4H-[1,4]oxazepino[5,6,7-de]quinazolin-5-yl)acetonitrile] | 4.82 | 3.70 | 5.24 | 5.35
10 | Cc1cc(N)nc(-c2cc3nc(OCC45COC(C4)C5)nc4c3c(c2Cl)OCCN4Cc2cccnc2N)c1C(F)(F)F [Example 36, 6-(2-((2-oxabicyclo[2.1.1]hexan-4-yl)methoxy)-4-((2-aminopyridin-3-yl)methyl)-8-chloro-5,6-dihydro-4H-[1,4]oxazepino[5,6,7-de]quinazolin-9-yl)-4-methyl-5-(trifluoromethyl)pyridin-2-amine] | – | – | 5.09 | 4.70
11 | Cc1cc(N)nc(-c2c(Cl)c3c4c(nc(OC[C@@H]5CC[C@H]6COCCN65)nc4c2F)N([C@H](C)c2nccnc2N)CCO3)c1C(F)(F)F (atropisomer, axis not shown; (aS)) [Example 104a, 3-((R)-1-((R)-9-(6-amino-4-methyl-3-(trifluoromethyl)pyridin-2-yl)-8-chloro-10-fluoro-2-(((6S,8aS)-hexahydro-1H-pyrrolo[2,1-c][1,4]oxazin-6-yl)methoxy)-5,6-dihydro-4H-[1,4]oxazepino[5,6,7-de]quinazolin-4-yl)ethyl)pyrazin-2-amine] | 9.82 | 9.35 | 7.92 | –
12 | Cc1cc(N)nc(-c2cc3nc(OC[C@@]45CCCN4CC(F)(F)C5)nc4c3c(c2Cl)OCCN4Cc2cccnc2N)c1C(F)(F)F [Example 34, (S)-6-(4-((2-aminopyridin-3-yl)methyl)-8-chloro-2-((2,2-difluorotetrahydro-1H-pyrrolizin-7a(5H)-yl)methoxy)-5,6-dihydro-4H-[1,4]oxazepino[5,6,7-de]quinazolin-9-yl)-4-methyl-5-(trifluoromethyl)pyridin-2-amine] | – | – | 6.09 | 5.40
13 | Cc1cc(N)nc(-c2c(Cl)c3c4c(nc(OC[C@@]56CCCN5C[C@H](F)C6)nc4c2F)N([C@H](C)c2ccnnc2N)CCO3)c1C(F)(F)F (atropisomer, axis not shown) [Example 133c] | – | – | 7.60 | 5.15
14 | Cc1cc(N)nc(-c2c(Cl)c3c4c(nc(OC[C@@]56CCCN5C[C@H](F)C6)nc4c2F)N(Cc2cnc[nH]2)CCO3)c1C(F)(F)F (single isomer, unassigned) [Example 47a] | – | – | 4.70 | 5.15
15 | Cc1cc(N)nc(-c2c(Cl)c3c4c(nc(OC[C@H]5CC[C@@H]6CO[C@H](C)CN56)nc4c2F)N([C@H](C)c2cccnc2N)CCO3)c1C(F)(F)F (atropisomer, axis not shown; (aR)) [Example 93d, 6-((R)-4-((R)-1-(2-aminopyridin-3-yl)ethyl)-8-chloro-10-fluoro-2-(((3R,6R,8aR)-3-methylhexahydro-1H-pyrrolo[2,1-c][1,4]oxazin-6-yl)methoxy)-5,6-dihydro-4H-[1,4]oxazepino[5,6,7-de]quinazolin-9-yl)-4-methyl-5-(trifluoromethyl)pyridin-2-amine] | 10.15 | 10.07 | 8.96 | –
16 | Cc1cc(N)nc(-c2cc3ncnc4c3c(c2Cl)OCCN4C)c1C(F)(F)F [Example 24, 6-(8-chloro-4-methyl-5,6-dihydro-4H-[1,4]oxazepino[5,6,7-de]quinazolin-9-yl)-4-methyl-5-(trifluoromethyl)pyridin-2-amine] | 5.36 | 4.52 | – | 4.70
17 | Cc1c(F)c(N)cc(-c2c(Cl)c3c4c(nc(OC[C@@]56CCCN5C[C@H](F)C6)nc4c2F)N([C@H](C)c2cccnc2N)CCO3)c1C(F)(F)F (atropisomer, axis not shown; (aS)) [Example 76a, 3-((R)-1-(9-((S)-5-amino-4-fluoro-3-methyl-2-(trifluoromethyl)phenyl)-8-chloro-10-fluoro-2-(((2R,7aS)-2-fluorotetrahydro-1H-pyrrolizin-7a(5H)-yl)methoxy)-5,6-dihydro-4H-[1,4]oxazepino[5,6,7-de]quinazolin-4-yl)ethyl)pyridin-2-amine] | 10.05 | 9.99 | 8.72 | –
18 | Cc1cc(N)nc(-c2cc3nc(OC[C@]45CCCN4CC(F)(F)C5)nc4c3c(c2Cl)OCCN4Cc2cccnc2N)c1C(F)(F)F [Example 50, (R)-6-(4-((2-aminopyridin-3-yl)methyl)-8-chloro-2-((2,2-difluorotetrahydro-1H-pyrrolizin-7a(5H)-yl)methoxy)-5,6-dihydro-4H-[1,4]oxazepino[5,6,7-de]quinazolin-9-yl)-4-methyl-5-(trifluoromethyl)pyridin-2-amine] | – | – | 6.03 | 5.17
